According to US20050014811A1, “Substituted benzimidazole compounds and their use for the treatment of cancer” (Aventis Pharma S.A., priority 2001, published 2005):

What follows are compounds tested against CDK4/CyclinD1 (Homo sapiens, UniProt P11802) (assay: CDK4/CyclinD1 Flashplate assay, 96-well format, biotinylated-Rb peptide substrate).
Format: biochemical
Description: This is a CDK4/CyclinD1 kinase assay in a 96-well Streptavidin-coated Flashplate with a biotinylated-Rb peptide substrate.
Each point is tested in duplicate
Biotinylated-Rb: Biotin-[…]
• 1. Prepare substrate: 1 mg/ml solution made fresh in PBS. • 2. Add 100 μg per well to the Flashplate. • 3. Incubate for 2 hours at RT. • 4. From 10 mM inhibitor stocks in DMSO, make 1 mM, 300 μM, 100 μM, 30 μM and 10 μM series of dilution in DMSO. • 5. Wash the Flashplate 3 times with 300 μl PBS to remove unbound peptide substrate. • 6. Add the CDK4/CyclinD1 kinase: 70 ng per well, in a volume of 90 μl in kinase buffer (except for “no enzyme” control wells). • 7. Add 1 μl^1 per well of inhibitor to test 10 μM, 3 μM, 1 μM, 0.3 μM and 0.1 μM in final concentration per 100 μl in each well. • 8. Shake gently the Flashplate 1 minute. • 9. Incubate 30 minutes on wet ice. • 10. Initiate the reaction with 10 μl kinase buffer containing 1 μM final cold ATP and 1 μCi final ^33P-ATP per well. • 11. Shake gently the Flashplate 1 minute. • 12. Incubate 45 minutes at RT (no shaking). • 13. Wash the Flashplate 3 times with 300 μl PBS • 14. Count to detect the incorporation of ^33P-ATP by the kinase to the Rb phosphorylation site.

Sequence of CDK4/CyclinD1 (P11802 whole entry, species assumed): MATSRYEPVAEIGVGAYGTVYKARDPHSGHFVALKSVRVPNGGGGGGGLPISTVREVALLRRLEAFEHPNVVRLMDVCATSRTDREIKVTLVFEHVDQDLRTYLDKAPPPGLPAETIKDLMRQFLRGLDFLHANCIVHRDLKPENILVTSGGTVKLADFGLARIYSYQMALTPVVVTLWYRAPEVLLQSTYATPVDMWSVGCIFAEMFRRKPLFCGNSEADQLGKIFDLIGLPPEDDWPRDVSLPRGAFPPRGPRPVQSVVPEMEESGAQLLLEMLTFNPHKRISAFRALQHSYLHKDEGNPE
Sequence of CDK4/CyclinD1 (P24385 whole entry partner, species assumed): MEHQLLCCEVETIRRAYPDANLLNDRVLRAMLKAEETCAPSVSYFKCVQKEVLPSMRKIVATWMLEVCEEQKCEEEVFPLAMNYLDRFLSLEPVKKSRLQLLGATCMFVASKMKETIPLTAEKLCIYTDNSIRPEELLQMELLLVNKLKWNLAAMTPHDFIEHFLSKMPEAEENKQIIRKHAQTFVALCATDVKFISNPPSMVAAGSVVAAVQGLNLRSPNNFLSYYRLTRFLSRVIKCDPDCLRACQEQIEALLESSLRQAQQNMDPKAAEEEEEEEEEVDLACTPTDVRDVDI

First: CC(C)(CO)CNc1ccc(S(=O)(=O)Oc2ccc3[nH]c(NC(=O)C4CC4)nc3c2)cc1 [Example 60-l, 4-(3-Hydroxy-2,2-dimethyl-propylamino)-benzenesulfonic acid 2-(cyclopropanecarbonyl-amino)-1H-benzoimidazol-5-yl ester]
Second: CC[C@@H](CO)Nc1ccc(S(=O)(=O)Oc2ccc3[nH]c(NC(=O)C4CC4)nc3c2)cc1 [Example 60-r, 4-(1S-Hydroxymethyl-propylamino)-benzenesulfonic acid 2-(cyclopropanecarbonyl-amino)-1H-benzoimidazol-5-yl ester]
The IC50 of the first is 1.5-fold lower: 400 nM for the first, 600 nM for the second.

`O=C(Nc1nc2cc(OS(=O)(=O)c3ccc(NCc4cccnc4)cc3)ccc2[nH]1)C1CC1` [Example 60-m, 4-[(Pyridin-3-yl-methyl)-amino]-benzenesulfonic acid 2-(cyclopropanecarbonyl-amino)-1H-benzoimidazol-5-yl ester] and `O=C(Nc1nc2cc(OS(=O)(=O)c3ccc(NCCNc4ccccc4)cc3)ccc2[nH]1)C1CC1` [Example 60-w, 4-(2-Phenylamino-ethylamino)-benzenesulfonic acid 2-(cyclopropanecarbonyl-amino)-1H-benzoimidazol-5-yl ester] are the same in IC50: 500 nM for the first, 500 nM for the second.

Compared with `CN1CCN(CCCNc2ccc(S(=O)(=O)Oc3ccc4[nH]c(NC(=O)C5CC5)nc4c3)cc2)CC1` [Example 60-n, 4-[3-(4-Methyl-piperazin-1-yl)-propylamino]-benzenesulfonic acid 2-(cyclopropanecarbonyl-amino)-1H-benzoimidazol-5-yl ester], `CCNCCNc1ccc(S(=O)(=O)Oc2ccc3[nH]c(NC(=O)C4CC4)nc3c2)cc1` [Example 60-s, 4-(2-Ethylamino-ethylamino)-benzenesulfonic acid 2-(cyclopropanecarbonyl-amino)-1H-benzoimidazol-5-yl ester] is 4-fold higher in IC50: 2000 nM for the first, 8000 nM for the second. The first is the more potent here.

Going from `O=C(Nc1nc2cc(OS(=O)(=O)c3ccc(NC4CCC(O)CC4)cc3)ccc2[nH]1)C1CC1` (stereo not drawn) [Example 60-p, 4-(4-Hydroxy-cyclohexylamino)-benzenesulfonic acid 2-(cyclopropanecarbonyl-amino)-1H-benzoimidazol-5-yl ester] to `O=C(Nc1nc2cc(OS(=O)(=O)c3ccc(NC4CN5CCC4CC5)cc3)ccc2[nH]1)C1CC1` (stereo not drawn) [Example 60-v, 4-(1-Aza-bicyclo[2.2.2]-oct-3-ylamino)-benzenesulfonic acid 2-(cyclopropane-carbonyl-amino)-1H-benzoimidazol-5-yl ester], the IC50 rises from 1200 nM to 4200 nM (3.5-fold).

`CCN(CC)CCNc1ccc(S(=O)(=O)Oc2ccc3[nH]c(NC(=O)C4CC4)nc3c2)cc1` [Example 60-q, 4-(2-Diethylamino-ethylamino)-benzenesulfonic acid 2-(cyclopropanecarbonyl-amino)-1H-benzoimidazol-5-yl ester] and `CC(C)N(CCNc1ccc(S(=O)(=O)Oc2ccc3[nH]c(NC(=O)C4CC4)nc3c2)cc1)C(C)C` [Example 60-t, 4-(2-Diisopropylamino-ethylamino)-benzenesulfonic acid 2-(cyclopropanecarbonyl-amino)-1H-benzoimidazol-5-yl ester] are within 1.5-fold of each other in IC50: 1800 nM for the first, 2000 nM for the second.

`NC(=O)[C@H]1CCCN1c1ccc(S(=O)(=O)Oc2ccc3[nH]c(NC(=O)C4CC4)nc3c2)cc1` [Example 60-y, 4-(2R-Carbamoyl-pyrrolidin-1-yl)-benzenesulfonic acid 2-(cyclopropanecarbonyl-amino)-1H-benzoimidazol-5-yl ester] and `COC(=O)Nc1nc2cc(OS(=O)(=O)c3ccc(C#N)cc3)ccc2[nH]1` [Example 62-s, 4-Cyano-benzenesulfonic acid 2-methoxycarbonylamino-1H-benzoimidazol-5-yl ester] are within 1.5-fold of each other in IC50: 2500 nM for the first, 1750 nM for the second.

Going from `COC(=O)Nc1nc2ccc(OS(=O)(=O)c3ccc(OC(F)(F)F)cc3)cc2[nH]1` [Example 61] to `CCOc1ccc(S(=O)(=O)Oc2ccc3nc(NC(=O)OC)[nH]c3c2)cc1` [Example 64-a, 4-Ethoxy-benzenesulfonic acid 2-methoxycarbonylamino-3H-benzoimidazol-5-yl ester], the IC50 falls from 2060 nM to 1000 nM (2.1-fold).

`COC(=O)Nc1nc2cc(OS(=O)(=O)c3ccccc3F)ccc2[nH]1` [Example 62-d, 2-Fluoro-benzenesulfonic acid 2-methoxycarbonylamino-1H-benzoimidazol-5-yl ester] and `COC(=O)Nc1nc2cc(OS(=O)(=O)c3ccccc3C#N)ccc2[nH]1` [Example 62-n, 2-Cyano-benzenesulfonic acid 2-methoxycarbonylamino-1H-benzoimidazol-5-yl ester] are within 1.5-fold of each other in IC50: 1300 nM for the first, 1000 nM for the second.

`COC(=O)Nc1nc2cc(OS(=O)(=O)c3cccc([N+](=O)[O-])c3)ccc2[nH]1` [Example 62-l, 3-Nitro-benzenesulfonic acid 2-methoxycarbonylamino-1H-benzoimidazol-5-yl ester] and `COC(=O)Nc1nc2cc(OS(=O)(=O)c3cccc(F)c3)ccc2[nH]1` [Example 62-r, 3-Fluoro-benzenesulfonic acid 2-methoxycarbonylamino-1H-benzoimidazol-5-yl ester] are the same in IC50: 2500 nM for the first, 2500 nM for the second.

`COC(=O)Nc1nc2cc(OS(=O)(=O)c3cccc(C(F)(F)F)c3)ccc2[nH]1` [Example 62-m, 3-Trifluoromethyl-benzenesulfonic acid 2-methoxycarbonylamino-1H-benzoimidazol-5-yl ester] and `COC(=O)Nc1nc2cc(OS(=O)(=O)c3ccccc3C(F)(F)F)ccc2[nH]1` [Example 62-o, 2-Trifluoromethyl-benzenesulfonic acid 2-methoxycarbonylamino-1H-benzoimidazol-5-yl ester] are within 1.5-fold of each other in IC50: 1200 nM for the first, 1000 nM for the second.

First: COC(=O)Nc1nc2cc(OS(=O)(=O)c3ccc(F)cc3F)ccc2[nH]1 [Example 62-p, 2,4-Difluoro-benzenesulfonic acid 2-methoxycarbonylamino-1H-benzoimidazol-5-yl ester]
Second: COC(=O)Nc1nc2cc(OS(=O)(=O)c3cc(F)ccc3C)ccc2[nH]1 [Example 62-q, 5-Fluoro-2-methyl-benzenesulfonic acid 2-methoxycarbonylamino-1H-benzoimidazol-5-yl ester]
The IC50 of the first is 2.3-fold lower: 700 nM for the first, 1600 nM for the second. The first is the more potent here.

Going from `COC(=O)Nc1nc2ccc(OS(=O)(=O)c3ccc(OCc4ccccc4)cc3)cc2[nH]1` [Example 63, 4-benzyloxy-benzenesulfonic acid 2-methoxycarbonylamino-1H-benzoimidazol-5-yl ester] to `COCCOc1ccc(S(=O)(=O)Oc2ccc3nc(NC(=O)OC)[nH]c3c2)cc1` [Example 64-c, 4-(2-Methoxy-ethoxy)-benzenesulfonic acid 2-methoxycarbonylamino-3H-benzoimidazol-5-yl ester], the IC50 rises from 1500 nM to 4370 nM (2.9-fold).

`COC(=O)Nc1nc2cc(OS(=O)(=O)c3c(C)noc3C)ccc2[nH]1` [Example 62-a, 3,5-Dimethyl-isoxazole-4-sulfonic acid 2-methoxycarbonylamino-1H-benzoimidazol-5-yl ester] and `COC(=O)Nc1nc2ccc(OS(=O)(=O)c3ccc(OCCN4CCOCC4)cc3)cc2[nH]1` [Example 64-b, 4-(2-Morpholin-4-yl-ethoxy)-benzenesulfonic acid 2-methoxycarbonylamino-3H-benzoimidazol-5-yl ester] are the same in inhibition at 10 µM: 50% for the first, 50% for the second.

`COC(=O)Nc1nc2ccc(OS(=O)(=O)c3ccc(OCCN4CCCCC4)cc3)cc2[nH]1` [Example 64-d, 4-(2-piperidin-1-yl-ethoxy)-benzenesulfonic acid 2-methoxycarbonylamino-3H-benzoimidazol-5-yl ester] gave an inhibition at 10 µM of 50%.
